The values below come from paper PMC10495297, “Three new amide derivatives from the fungus Alternaria brassicicola” (Natural Products and Bioprospecting, 2023).

The subject of one series is IKKβ. Also on record: method as in PMID 30095270. Particulars: cited from earlier work.
Series [1] is described as follows: MTT cytotoxicity assay, HT-29. The format is cell-based. Particulars: human, HT-29 cells, HT-29, MTT, 0.064 to 40 μM. On the procedure: (§1) Compounds 1–6 were tested for the cytotoxicity against six cell lines, including five human cancer cell lines (HepG2, Hep3B, HT-29, HeLa, and OCVAR) and the normal liver cell LO2.
(§2) Compounds 1–6 were evaluated for the cytotoxicity against five human cancer cell lines and normal LO2, including OCVaR, HepG2, HeLa, HT-29, and Hep3B, by a previously reported method The tested cells were purchased from the Cell Bank of Chinese Academy of Science, Shanghai, China. For all cell lines, 5000 cells/ well were seeded into 96-well plates (n = 3) and cultured for 18 h, then exposed to the test compounds at concentrations ranging from 0.064 to 40 μM for 48 h, with cis-platin as the positive control. Briefly, 10 μL/well of MTT was added and cultured for another 4 h before removing medium and adding 100 μL of DMSO. The absorbance at 490 nm was detected, and complete medium containing only 0.1% DMSO was defined as 100% and blank well as 0%. The concentration−response relationships were analyzed using Graphpad Prism Software, version 7.0, and IC50 values derived using nonlinear regression analysis fit to a logistic equation.

Series [2] is described as follows: MTT cytotoxicity assay, normal liver cell LO2. The format is cell-based. The conditions noted are these: human, LO2 normal liver cells, 0.064 to 40 μM. The method, then: as §1, §2
(Formazan colour is commonly taken as a measure of viable cells.)

Series [3] is described as follows: MTT cytotoxicity assay, OCVAR. The format is cell-based. The conditions noted are these: human, OCVAR cells, 0.064 to 40 μM. On the procedure: as §1, §2
Series [4] can be described thus: MTT cytotoxicity assay, Hep3B. The format is cell-based. The conditions noted are these: human, Hep3B cells, 0.064 to 40 μM. On the procedure:
as §1, §2

Series [5] in a line: MTT cytotoxicity assay, HeLa. The format is cell-based. The conditions noted are these: human, HeLa cells, 0.064 to 40 μM. The method, then:
as §1, §2

Series [6] in a line: MTT cytotoxicity assay, HepG2. The class given is cell-based. The conditions noted are these: human, HepG2 cells, 0.064 to 40 μM. On the procedure:
as §1, §2

The next series concerns PPAR-γ. Also on record: method as in PMID 30525677. Particulars: cited from earlier work.

As to alterbrassicene A, the IKKβ inhibitory effect entry in the series on IKKβ is given as “potent IKKβ inhibitory effect”.
For the compound `CCCCOC(=O)CCCCNC(C)=O` [Compound 2, butyl 5-acetamidopentanoate], the half-maximal inhibitory concentration (IC50) at 48 h in series [1], in series [2], in series [3], in series [4], in series [5] and in series [6] was more than 40 µM throughout.
Take `COCc1ccc(C=O)n1CCCC(=O)O` [Compound 5, 4-[2-formyl-5-(methoxymethyl)-1H-pyrrol-1-yl]butanoic acid]: the 50% inhibitory concentration (IC50) at 48 h in series [1], in series [2], in series [3], in series [4], in series [5] and in series [6] was more than 40 µM throughout.
Take alterbrassicicene A: the “agonistic action upon PPAR-γ” value in the series on PPAR-γ is “strong agonistic action upon PPAR-γ”.

One may read the IC50 as the midpoint of a concentration-inhibition curve. A higher IC50 goes with weaker potency in that assay.
